Data as given in patent publication US20190375708A1 (VenatoRx Pharmaceuticals, Inc., priority 2018, published 2019).

Key:
[1] = system: HBV replication in HepAD38 cells; test: Anti-HBV replication assay in HepAD38 cells (QPCR of extracellular HBV DNA); format: cell-based, HBV (genotype D, serotype ayw); settings: Hepatitis B virus, 168 h, 7 days incubation, extracellular HBV DNA by QPCR, read-out: Anti-HBV EC50
Method in brief: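 EC50 values reflect 50% reduction of extracellular HBV DNA, measured by QPCR after 7-day treatment of tetracycline-deprived HepAD38 cells with compound […].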

[2] = In vitro cytotoxicity assay (MTT cell viability) in HepG2 cells; format: cell-based, human; settings: human
Method in brief: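 Using MTT conversion as the viability measure, HepG2 cells were incubated with compounds for 7 days (30 μM to 1.0 nM). Absorbance at 492 nm was normalized to vehicle and fitted to give CC50.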

SMILES: Cc1c(C(=O)Nc2ccc(F)c(F)c2)c(C)n(C)c1C(=O)C(=O)NC1CCC(F)(F)CC1 [Example 298, 5-(2-((4,4-difluorocyclohexyl)amino)-2-oxoacetyl)-N-(3,4-difluorophenyl)-1,2,4-trimethyl-1H-pyrrole-3-carboxamide]
- EC50 [1]: < 0.05 µM
- CC50 at 7 days [2]: > 30 µM

SMILES: Nc1ncc(CNC(=O)C(=O)c2c(Cl)c(C(=O)Nc3ccc(F)c(Cl)c3)c3n2CCC3)s1 [Example 562, 5-(2-(((2-aminothiazol-5-yl)methyl)amino)-2-oxoacetyl)-6-chloro-N-(3-chloro-4-fluorophenyl)-2,3-dihydro-1H-pyrrolizine-7-carboxamide]
- EC50 [1]: < 0.05 µM
- CC50 at 7 days [2]: 5 to 30 µM

SMILES: Cc1cc(NC(=O)c2c(C)c(C(=O)C(=O)NC3(C(=O)NC(C)(C)CO)CCOCC3)n(C)c2C)ccc1F [Example 681, N-(4-fluoro-3-methylphenyl)-5-(2-((4-((1-hydroxy-2-methylpropan-2-yl)carbamoyl)tetrahydro-2H-pyran-4-yl)amino)-2-oxoacetyl)-1,2,4-trimethyl-1H-pyrrole-3-carboxamide]
- EC50 [1]: < 0.05 µM
- CC50 at 7 days [2]: > 30 µM

SMILES: Cc1cc(NC(=O)c2c(C)c(C(=O)C(=O)NCC(C)(C)O)n(C)c2C)cnc1F [Example 183, N-(6-fluoro-5-methylpyridin-3-yl)-5-(2-((2-hydroxy-2-methylpropyl)amino)-2-oxoacetyl)-1,2,4-trimethyl-1H-pyrrole-3-carboxamide]
- EC50 [1]: 0.5 to 1 µM
- CC50 at 7 days [2]: > 30 µM

SMILES: Cc1cc(NC(=O)c2c(C)c(C(=O)C(=O)N[C@H](C)[C@@H](C)O)n(C)c2C)ccc1F [Example 199, N-(4-fluoro-3-methylphenyl)-5-(2-(((2R,3R)-3-hydroxybutan-2-yl)amino)-2-oxoacetyl)-1,2,4-trimethyl-1H-pyrrole-3-carboxamide]
- EC50 [1]: < 0.05 µM
- CC50 at 7 days [2]: > 30 µM

SMILES: Cc1noc([C@@H](C)NC(=O)C(=O)c2c(Cl)c(C(=O)Nc3cnc(F)c(C)c3)c3n2CCCC3)n1 [Example 522, (R)-2-chloro-N-(6-fluoro-5-methylpyridin-3-yl)-3-(2-((1-(3-methyl-1,2,4-oxadiazol-5-yl)ethyl)amino)-2-oxoacetyl)-5,6,7,8-tetrahydroindolizine-1-carboxamide]
- EC50 [1]: > 1 µM
- CC50 at 7 days [2]: > 30 µM

SMILES: Cc1c(C(=O)Nc2ccc(F)cn2)c(C)n(C)c1C(=O)C(=O)NC12CC3CC(CC1C3)C2 [Example 135, N-(5-fluoropyridin-2-yl)-5-(2-(((2R,3as,5S,6as)-hexahydro-2,5-methanopentalen-3a(1H)-l)amino)-2-oxoacetyl)-1,2,4-trimethyl-1H-pyrrole-3-carboxamide]
- EC50 [1]: 0.05 to 0.499 µM
- CC50 at 7 days [2]: 5 to 30 µM

SMILES: Cc1cc(NC(=O)c2c(C)c(C(=O)C(=O)Nc3cccc(B(O)O)c3)n(C)c2C)ccc1F [Example 254, (3-(2-(4-((4-fluoro-3-methylphenyl)carbamoyl)-1,3,5-trimethyl-1H-pyrrol-2-yl)-2-oxoacetamido)phenyl)boronic acid]
- EC50 [1]: < 0.05 µM
- CC50 at 7 days [2]: 5 to 30 µM

SMILES: Cc1c(C(=O)Nc2ccnc(F)c2)c(C)n(C)c1C(=O)C(=O)NC1CCSCC1 [Example 272, N-(2-fluoropyridin-4-yl)-1,2,4-trimethyl-5-(2-oxo-2-((tetrahydro-2H-thiopyran-4-yl)amino)acetyl)-1H-pyrrole-3-carboxamide]
- EC50 [1]: < 0.05 µM
- CC50 at 7 days [2]: > 30 µM

SMILES: Cc1noc([C@@H](C)NC(=O)C(=O)c2c(Cl)c(C(=O)Nc3cnc(F)c(C)c3)c3n2CCC3)n1 [Example 735, (R)-6-chloro-N-(6-fluoro-5-methylpyridin-3-yl)-5-(2-((1-(3-methyl-1,2,4-oxxadiazol-5-yl)ethyl)amino)-2-oxoacetyl)-2,3-dihydro-1H-pyrrolizine-7-carboxamide]
- EC50 [1]: 0.05 to 0.499 µM
- CC50 at 7 days [2]: 5 to 30 µM

SMILES: CC(C)(C)NC(=O)C(=O)c1cc(C(=O)Nc2ccc(F)c(Cl)c2)c2n1CCCC2 [Example 399, 3-(2-(tert-butylamino)-2-oxoacetyl)-N-(3-chloro-4-fluorophenyl)-5,6,7,8-tetrahydroindolizine-1-carboxamide]
- EC50 [1]: 0.05 to 0.499 µM
- CC50 at 7 days [2]: > 30 µM

SMILES: Cc1cc(NC(=O)c2c(C)c(C(=O)C(=O)N[C@]3(C)C[C@@H](O)C3)n(C)c2C)ccc1F [Example 619]
- EC50 [1]: < 0.05 µM
- CC50 at 7 days [2]: > 30 µM

SMILES: Cc1cc(NC(=O)c2c(C)c(C(=O)C(=O)Nc3ccc(F)nc3)n(C)c2C)ccc1F [Example 212, N-(4-fluoro-3-methylphenyl)-5-(2-((6-fluoropyridin-3-yl)amino)-2-oxoacetyl)-1,2,4-trimethyl-1H-pyrrole-3-carboxamide]
- EC50 [1]: < 0.05 µM
- CC50 at 7 days [2]: 5 to 30 µM

SMILES: Cc1cc(NC(=O)c2c(C)c(C(=O)C(=O)NC(C)(C)C(F)(F)F)n(C)c2C)ccc1F [Example 9, N-(4-fluoro-3-methylphenyl)-1,2,4-trimethyl-5-(2-oxo-2-((1,1,1-trifluoro-2-methylpropan-2-yl)amino)acetyl)-1H-pyrrole-3-carboxamide]
- EC50 [1]: < 0.05 µM
- CC50 at 7 days [2]: > 30 µM

SMILES: CNC(=O)[C@@H](NC(=O)C(=O)c1c(C)c(C(=O)Nc2ccc(F)c(C)c2)c(C)n1C)C1CC1 [Example 123, (S)-5-(2-((1-cyclopropyl-2-(methylamino)-2-oxoethyl)amino)-2-oxoacetyl)-N-(4-fluoro-3-methylphenyl)-1,2,4-trimethyl-1H-pyrrole-3-carboxamide]
- EC50 [1]: 0.05 to 0.499 µM
- CC50 at 7 days [2]: > 30 µM

SMILES: Cc1noc(C2(NC(=O)C(=O)c3c(C)c(C(=O)Nc4ccc(F)c(C)c4)c(C)n3CCF)CC2)n1 [Example 203, N-(4-fluoro-3-methylphenyl)-1-(2-fluoroethyl)-2,4-dimethyl-5-(2-((1-(3-methyl-1,2,4-oxadiazol-5-yl)cyclopropyl)amino)-2-oxoacetyl)-1H-pyrrole-3-carboxamide]
- EC50 [1]: < 0.05 µM
- CC50 at 7 days [2]: > 30 µM

SMILES: Cc1cc(NC(=O)c2c(C)c(C(=O)C(=O)NC(C)(C)CN3CCOCC3)n(C)c2C)ccc1F [Example 291, N-(4-fluoro-3-methylphenyl)-1,2,4-trimethyl-5-(2-((2-methyl-1-morpholinopropan-2-yl)amino)-2-oxoacetyl)-1H-pyrrole-3-carboxamide]
- EC50 [1]: < 0.05 µM
- CC50 at 7 days [2]: > 30 µM

SMILES: COc1cc(NC(=O)C(=O)c2c(C)c(C(=O)Nc3ccc(F)c(C)c3)c(C)n2C)ccc1B(O)O [Example 248, (4-(2-(4-((4-fluoro-3-methylphenyl)carbamoyl)-1,3,5-trimethyl-1H-pyrrol-2-yl)-2-oxoacetamido)-2-methoxyphenyl)boronic acid]
- EC50 [1]: 0.05 to 0.499 µM
- CC50 at 7 days [2]: 5 to 30 µM

SMILES: Cc1cc(NC(=O)c2c(C)c(C(=O)C(=O)NCCN3CCSCC3)n(C)c2C)ccc1F [Example 328, N-(4-fluoro-3-methylphenyl)-1,2,4-trimethyl-5-(2-oxo-2-((2-thiomorpholinoethyl)amino)acetyl)-1H-pyrrole-3-carboxamide]
- EC50 [1]: 0.05 to 0.499 µM
- CC50 at 7 days [2]: > 30 µM

SMILES: Cc1cc(NC(=O)c2cc(C(=O)C(=O)NC3(CO)CC(F)(F)C3)n3c2CCCC3)ccc1F [Example 432, 3-(2-((3,3-difluoro-1-(hydroxymethyl)cyclobutyl)amino)-2-oxoacetyl)-N-(4-fluoro-3-methylphenyl)-5,6,7,8-tetrahydroindolizine-1-carboxamide]
- EC50 [1]: 0.05 to 0.499 µM
- CC50 at 7 days [2]: > 30 µM

SMILES: Cc1cc(NC(=O)c2c(C)c(C(=O)C(=O)NC(C)(C)c3noc(CN(C)C)n3)n(C)c2C)ccc1F [Example 154, 5-(2-((2-(5-((dimethylamino)methyl)-1,2,4-oxadiazol-3-yl)propan-2-yl)amino)-2-oxoacetyl)-N-(4-fluoro-3-methylphenyl)-1,2,4-trimethyl-1H-pyrrole-3-carboxamide]
- EC50 [1]: < 0.05 µM
- CC50 at 7 days [2]: > 30 µM

SMILES: Cc1noc([C@@H](C)NC(=O)C(=O)c2c(Cl)c(C(=O)Nc3ccc(F)c(F)c3)c3n2CCCC3)n1 [Example 517, (R)-2-chloro-N-(3,4-difluorophenyl)-3-(2-((1-(3-methyl-1,2,4-oxadiazol-5-yl)ethyl)amino)-2-oxoacetyl)-5,6,7,8-tetrahydroindolizine-1-carboxamidde]
- EC50 [1]: 0.05 to 0.499 µM
- CC50 at 7 days [2]: 5 to 30 µM

SMILES: Cc1nc2c(s1)C(NC(=O)C(=O)c1c(C)c(C(=O)Nc3ccc(F)c(C)c3)c(C)n1C)CCC2 (stereo not shown) [Example 355, N-(4-fluoro-3-methylphenyl)-1,2,4-trimethyl-5-(2-((2-methyl-4,5,6,7-tetrahydrobenzo[d]thiazol-7-yl)amino)-2-oxoacetyl)-1H-pyrrole-3-carboxamide]
- EC50 [1]: < 0.05 µM
- CC50 at 7 days [2]: > 30 µM

SMILES: Cc1cc(NC(=O)c2c(C)c(C(=O)C(=O)NCCN)n(C)c2C)ccc1F [Example 257, 5-(2-((2-aminoethyl)amino)-2-oxoacetyl)-N-(4-fluoro-3-methylphenyl)-1,2,4-trimethyl-1H-pyrrole-3-carboxamide]
- EC50 [1]: 0.05 to 0.499 µM
- CC50 at 7 days [2]: 5 to 30 µM

SMILES: Cc1cc(NC(=O)c2c(C)c(C(=O)C(=O)N[C@H]3C[C@H](O)C3)n3c2CCCC3)ccc1F [Example 438, N-(4-fluoro-3-methylphenyl)-3-(2-(((1r,3r)-3-hydroxycyclobutyl)amino)-2-oxoacetyl)-2-methyl-5,6,7,8-tetrahydroindolizine-1-carboxamide]
- EC50 [1]: 0.05 to 0.499 µM
- CC50 at 7 days [2]: > 30 µM

SMILES: Cc1cc(Cl)cc(NC(=O)c2c(C)c(C(=O)C(=O)N[C@H](C)C(F)(F)F)n(C)c2C)c1 [Example 686, (R)-N-(3-chloro-5-methylphenyl)-1,2,4-trimethyl-5-(2-oxo-2-((1,1,1-trifluoropropan-2-yl)amino)acetyl)-1H-pyrrole-3-carboxamide]
- EC50 [1]: < 0.05 µM
- CC50 at 7 days [2]: 0.5 to 4.99 µM
